Experimental data from PubChem BioAssay AID236 (DTP/NCI, 2004).
Several values for one entry are separate records, joined by “and”; a condition that tells them apart may be missing. Equal values may be shown once. Toxic doses and inconclusive results are not listed.

Tested on: AK4 lymphoid leukemia ip, C3AKF1 mice, survival
Experiment: NCI In Vivo Anticancer Drug Screen. Data for tumor model AK4 Lymphoid Leukemia (intraperitoneal) in C3AKF1 (CHKRF1) mice
Details: endpoint: median survival time, higher = longer survival
Procedure: The antitumor activity of compounds was measured in mice bearing transplantable tumors. Survival or tumor size were measured and the results are expressed as the measurement made in the treated group (T) divided by the measurement made in the vehicle treated control group (C). The tumor model used in this assay is AK4 Lymphoid Leukemia (intraperitoneal) in C3AKF1 (CHKRF1) mice

[1] = dose: 3.13 mg/kg/injection, schedule: Q01DX010 (ip), vehicle: saline
[2] = dose: 6.25 mg/kg/injection, schedule: Q01DX010 (ip), vehicle: saline
[3] = dose: 12.5 mg/kg/injection, schedule: Q01DX010 (ip), vehicle: saline
[4] = dose: 25.0 mg/kg/injection, schedule: Q01DX010 (ip), vehicle: saline
[5] = dose: 50.0 mg/kg/injection, schedule: Q01DX010 (ip), vehicle: saline
[6] = dose: 100.0 mg/kg/injection, schedule: Q01DX010 (ip), vehicle: saline
[7] = dose: 2.0 mg/kg/injection, schedule: Q01DX010 (ip), vehicle: saline
[8] = dose: 4.0 mg/kg/injection, schedule: Q01DX010 (ip), vehicle: saline
[9] = dose: 15.0 mg/kg/injection, schedule: Q01DX010 (ip), vehicle: saline
[10] = dose: 30.0 mg/kg/injection, schedule: Q01DX010 (ip), vehicle: saline
[11] = dose: 60.0 mg/kg/injection, schedule: Q01DX010 (ip), vehicle: saline
[12] = dose: 62.5 mg/kg/injection, schedule: Q01DX010 (ip), vehicle: saline
[13] = dose: 500.0 mg/kg/injection, schedule: Q01DX010 (ip), vehicle: saline
[14] = dose: 5.0 mg/kg/injection, schedule: Q01DX010 (ip), vehicle: saline
[15] = dose: 10.0 mg/kg/injection, schedule: Q01DX010 (ip), vehicle: saline
[16] = dose: 20.0 mg/kg/injection, schedule: Q01DX010 (ip), vehicle: saline
[17] = dose: 125.0 mg/kg/injection, schedule: Q01DX010 (ip), vehicle: saline
[18] = dose: 250.0 mg/kg/injection, schedule: Q01DX010 (ip), vehicle: saline
[19] = dose: 1.25 mg/kg/injection, schedule: Q01DX010 (ip), vehicle: saline
[20] = dose: 2.5 mg/kg/injection, schedule: Q01DX010 (ip), vehicle: saline
[21] = dose: 0.5 mg/kg/injection, schedule: Q01DX010 (ip), vehicle: saline
[22] = dose: 1.0 mg/kg/injection, schedule: Q01DX010 (ip), vehicle: saline
[23] = dose: 31.3 mg/kg/injection, schedule: Q01DX010 (ip), vehicle: saline
[24] = dose: 200.0 mg/kg/injection, schedule: Q01DX010 (ip), vehicle: saline
[25] = dose: 8.0 mg/kg/injection, schedule: Q01DX010 (ip), vehicle: saline

Compound: O=[n+]1c2c(n([O-])c3ccccc31)-c1cccc3cccc-2c13
- T/C [1]: 100 % of control
- T/C [2]: 100 % of control
- T/C [3]: 100 % of control
- T/C [4]: 88 % of control and 94 % of control
- T/C [5]: 88 % of control
- T/C [6]: 88 % of control

Compound: N=[N+]=CC(=O)OCC(N)C(=O)O (stereo not given)
- T/C [1]: 122 % of control
- T/C [3]: 113 % of control
- T/C [4]: 100 % of control and 86 % of control

Compound: CN(C)c1ccc(/C=C\c2ccnc3ccccc23)cc1
- T/C (dose: 1.5 mg/kg/injection, schedule: Q01DX010 (ip), vehicle: saline): 100 % of control
- T/C (dose: 3.0 mg/kg/injection, schedule: Q01DX010 (ip), vehicle: saline): 100 % of control
- T/C (dose: 6.0 mg/kg/injection, schedule: Q01DX010 (ip), vehicle: saline): 100 % of control
- T/C (dose: 12.0 mg/kg/injection, schedule: Q01DX010 (ip), vehicle: saline): 100 % of control

Compound: O=NN(CCCl)C(=O)NCCCl
- T/C [2]: 168 % of control and 185 % of control
- T/C [3]: 160 % of control and 181 % of control

Compound: NC(Cc1c[nH]c2ccc(N(CCCl)CCCl)cc12)C(=O)O (stereo not given)
- T/C [7]: 156 % of control
- T/C [8]: 175 % of control

Compound: CN(C)[C@@H]1C(=O)C(C(N)=O)=C(O)[C@@]2(O)C(=O)C3=C(O)c4c(O)cccc4C[C@H]3C[C@@H]12
- T/C (dose: 7.5 mg/kg/injection, schedule: Q01DX010 (ip), vehicle: saline): 100 % of control
- T/C [9]: 100 % of control and 105 % of control
- T/C [10]: 100 % of control
- T/C [11]: 94 % of control

Compound: O=CN(O)CC(=O)O
- T/C [12]: 100 % of control
- T/C [13]: 90 % of control

Compound: CS(=O)(=O)OCCC(=O)N1CCN(C(=O)CCOS(C)(=O)=O)CC1
- T/C [3]: 94 % of control and 116 % of control
- T/C [4]: 116 % of control
- T/C [6]: 122 % of control

Compound: C[C@@H]1C[C@@H]([C@H](O)CC2CC(=O)NC(=O)C2)C(=O)[C@@H](C)C1
- T/C [14]: 100 % of control and 107 % of control
- T/C [15]: 87 % of control and 121 % of control
- T/C [16]: 93 % of control and 114 % of control

Compound: Nc1c(Br)cc2c(c1Br)Cc1cc([N+](=O)[O-])ccc1-2
- T/C [12]: 100 % of control and 105 % of control
- T/C [17]: 94 % of control and 100 % of control
- T/C [18]: 94 % of control and 105 % of control
- T/C [13]: 94 % of control

Compound: CN(N=O)C(=O)NC(C=O)C(O)C(O)C(O)CO (stereo not given)
- T/C [11]: 150 % of control
- T/C (dose: 90.0 mg/kg/injection, schedule: Q01DX010 (ip), vehicle: saline): 150 % of control

Compound: NC(=O)c1ccc(NC(=O)CCC(=O)Nc2ccc(C(N)=O)cn2)nc1
- T/C (dose: 0.63 mg/kg/injection, schedule: Q01DX010 (ip), vehicle: saline): 100 % of control
- T/C [19]: 110 % of control
- T/C [20]: 110 % of control
- T/C [14]: 100 % of control

Compound: Nc1nc(F)nc2c1ncn2C1OC(CO)C(O)C1O (stereo not given)
- T/C [21]: 105 % of control
- T/C [22]: 100 % of control
- T/C [7]: 100 % of control and 111 % of control
- T/C [8]: 100 % of control and 105 % of control

Compound: COc1ccc2c(c1OC)C(=O)O[C@@H]2[C@H]1c2c(cc3c(c2OC)OCO3)CCN1C
- T/C (dose: 0.9 mg/kg/injection, schedule: Q01DX010 (ip), vehicle: saline): 100 % of control
- T/C (dose: 1.9 mg/kg/injection, schedule: Q01DX010 (ip), vehicle: saline): 87 % of control
- T/C (dose: 3.9 mg/kg/injection, schedule: Q01DX010 (ip), vehicle: saline): 87 % of control
- T/C (dose: 7.8 mg/kg/injection, schedule: Q01DX010 (ip), vehicle: saline): 111 % of control and 87 % of control
- T/C (dose: 15.6 mg/kg/injection, schedule: Q01DX010 (ip), vehicle: saline): 100 % of control
- T/C [23]: 100 % of control
- T/C [12]: 94 % of control
- T/C [17]: 88 % of control
- T/C [18]: 88 % of control

Compound: OC(CBr)C(O)C(O)C(O)CBr (stereo not given)
- T/C [5]: 100 % of control and 87 % of control
- T/C [6]: 93 % of control and 87 % of control
- T/C [24]: 93 % of control and 100 % of control
- T/C (dose: 400.0 mg/kg/injection, schedule: Q01DX010 (ip), vehicle: saline): 100 % of control

Compound: C[C@H]1C(=O)O[C@@H]2CCN3CC=C(COC(=O)[C@](C)(O)[C@@]1(C)O)[C@H]23
- T/C [1]: 111 % of control
- T/C [2]: 100 % of control
- T/C [3]: 117 % of control

Compound: CCN(CC)CCNc1ccc(C)c2sc3ccccc3c(=O)c12
- T/C [4]: 122 % of control
- T/C [6]: 105 % of control

Compound: CS(=O)(=O)OCC(O)C(O)C(O)C(O)COS(C)(=O)=O (stereo not given)
- T/C [3]: 112 % of control
- T/C [4]: 100 % of control and 105 % of control
- T/C [5]: 94 % of control
- T/C [6]: 87 % of control and 100 % of control
- T/C [24]: 100 % of control

Compound: Nc1nc2n[nH]nc2c(=O)[nH]1
- T/C (dose: 25.0 mg/kg/injection, schedule: Q01DX010 (ip), vehicle: alkali diluted with saline): 100 % of control and 115 % of control
- T/C (dose: 50.0 mg/kg/injection, schedule: Q01DX010 (ip), vehicle: alkali diluted with saline): 105 % of control and 120 % of control
- T/C (dose: 100.0 mg/kg/injection, schedule: Q01DX010 (ip), vehicle: alkali diluted with saline): 100 % of control and 110 % of control
- T/C (dose: 200.0 mg/kg/injection, schedule: Q01DX010 (ip), vehicle: alkali diluted with saline): 100 % of control and 110 % of control

Compound: NC(=O)N(CCCl)N=O
- T/C [21]: 162 % of control
- T/C [22]: 168 % of control and 200 % of control
- T/C [8]: 87 % of control

Compound: CCC(=O)O[C@H]1CC[C@H]2[C@@H]3CCC4=CC(=O)CC[C@]4(C)[C@H]3CC[C@]12C
- T/C (dose: 125.0 mg/kg/injection, schedule: Q01DX010 (sc), vehicle: steriod suspending solution): 87 % of control
- T/C (dose: 250.0 mg/kg/injection, schedule: Q01DX010 (sc), vehicle: steriod suspending solution): 87 % of control
- T/C (dose: 500.0 mg/kg/injection, schedule: Q01DX010 (sc), vehicle: steriod suspending solution): 93 % of control
- T/C (dose: 1000.0 mg/kg/injection, schedule: Q01DX010 (sc), vehicle: steriod suspending solution): 87 % of control

Compound: C[C@]12C=CC(=O)C=C1CC[C@@H]1[C@@H]2[C@@H](O)C[C@@]2(C)[C@H]1CC[C@]2(O)C(=O)CO
- T/C (dose: 12.5 mg/kg/injection, schedule: Q01DX010 (sc), vehicle: steriod suspending solution): 90 % of control and 110 % of control
- T/C (dose: 25.0 mg/kg/injection, schedule: Q01DX010 (sc), vehicle: steriod suspending solution): 95 % of control
- T/C (dose: 50.0 mg/kg/injection, schedule: Q01DX010 (sc), vehicle: steriod suspending solution): 100 % of control and 105 % of control
- T/C (dose: 100.0 mg/kg/injection, schedule: Q01DX010 (sc), vehicle: steriod suspending solution): 90 % of control

Compound: Nc1nc(=S)c2ncn(C3OC(CO)C(O)C3O)c2[nH]1 (stereo not given)
- T/C [7]: 117 % of control
- T/C [8]: 111 % of control
- T/C [25]: 117 % of control
- T/C (dose: 16.0 mg/kg/injection, schedule: Q01DX010 (ip), vehicle: saline): 94 % of control

Compound: CC[n+]1c(-c2ccccc2)c2cc(N)ccc2c2ccc(N)cc21
- T/C [19]: 100 % of control
- T/C [20]: 100 % of control
- T/C [14]: 100 % of control
- T/C [15]: 100 % of control and 112 % of control
- T/C [16]: 112 % of control

Compound: C[N+](C)(C)c1ncnc2nc[nH]c12
- T/C [9]: 100 % of control
- T/C [10]: 116 % of control
- T/C [11]: 111 % of control
- T/C (dose: 120.0 mg/kg/injection, schedule: Q01DX010 (ip), vehicle: saline): 88 % of control

Compound: CCN(CC)c1ccc2cc3ccc(=[N+](CC)CC)cc-3oc2c1
- T/C [22]: 100 % of control
- T/C [7]: 100 % of control
- T/C [8]: 100 % of control
- T/C [25]: 100 % of control

Compound: CCN(CCNc1ccc(C)c2sc3cc(Cl)ccc3c(=O)c12)CC(C)O (stereo not given)
- T/C [23]: 94 % of control
- T/C [12]: 88 % of control and 94 % of control
- T/C [17]: 94 % of control
- T/C [18]: 88 % of control

Compound: CC1CCOS(=O)O1 (stereo not given)
- T/C [15]: 100 % of control
- T/C [16]: 88 % of control and 100 % of control
- T/C (dose: 40.0 mg/kg/injection, schedule: Q01DX010 (ip), vehicle: saline): 90 % of control and 100 % of control
- T/C (dose: 80.0 mg/kg/injection, schedule: Q01DX010 (ip), vehicle: saline): 88 % of control

Compound: CC[C@@H](c1ccc(O)cc1)[C@@H](CC)c1ccc(O)cc1
- T/C (dose: 25.0 mg/kg/injection, schedule: Q01DX010 (ip), vehicle: water): 100 % of control
- T/C (dose: 50.0 mg/kg/injection, schedule: Q01DX010 (ip), vehicle: water): 87 % of control
- T/C (dose: 100.0 mg/kg/injection, schedule: Q01DX010 (ip), vehicle: water): 87 % of control
- T/C (dose: 200.0 mg/kg/injection, schedule: Q01DX010 (ip), vehicle: water): 87 % of control
